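Test compounds were applied to cells in 96-well plates for 48 hours at 5 doses. GI50 is the concentration that inhibits growth by half. TGI marks complete inhibition of growth.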
Tests used:
Assay in all cases: DTP human tumour cell line panel, 48 h
[1] = system: UO-31 renal
[2] = system: K-562 leukemia
[3] = system: OVCAR-3 ovarian
[4] = system: OVCAR-5 ovarian
[5] = system: HCT-15 colon
[6] = system: SF-539 CNS
[7] = system: EKVX NSCLC
[8] = system: CAKI-1 renal
[9] = system: HS 578T breast
[10] = system: RPMI-8226 leukemia
[11] = system: NCI/ADR-RES ovarian
[12] = system: M14 melanoma
[13] = system: SF-295 CNS
[14] = system: MDA-MB-435
[15] = system: MCF7 breast
[16] = system: U251 CNS
[17] = system: RXF 393 renal
[18] = system: OVCAR-4 ovarian
[19] = system: SK-MEL-28 melanoma
[20] = system: MALME-3M melanoma
[21] = system: A549 NSCLC
[22] = system: UACC-257 melanoma
[23] = system: 786-0 renal
[24] = system: T-47D breast
[25] = system: HT29 colon
[26] = system: SNB-75 CNS
[27] = system: UACC-62 melanoma
[28] = system: MOLT-4 leukemia
[29] = system: NCI-H460 lung
[30] = system: NCI-H226 lung
[31] = system: SR leukemia
[32] = system: SK-MEL-2 melanoma
[33] = system: HL-60(TB) leukemia
[34] = system: HCC-2998 colon
[35] = system: ACHN renal
[36] = system: NCI-H23 lung
[37] = system: SK-OV-3 ovarian
[38] = system: NCI-H522 lung
[39] = system: SW-620 colon
[40] = system: BT-549 breast
[41] = system: CCRF-CEM leukemia
[42] = system: SF-268 CNS
[43] = system: TK-10 renal
[44] = system: OVCAR-8 ovarian
[45] = system: LOX IMVI melanoma
[46] = system: IGROV1 ovarian
[47] = system: DU-145 prostate
[48] = system: KM12 colon
[49] = system: HCT-116 colon
[50] = system: HOP-62 NSCLC
[51] = system: MDA-MB-231 breast
[52] = system: A498 renal
[53] = system: SN12C renal
[54] = system: SNB-19 CNS
[55] = system: SK-MEL-5 melanoma
[56] = system: COLO 205 colon

Work on `C[C@H](NC(=O)[C@@H](C)N)[C@H](Oc1ccc2c(cnn2-c2ccc(F)cc2)c1)c1ccc2c(c1)OCCO2` yielded a GI50 [1] of 1.39 µM, a TGI [1] of 3.27 µM and a GI50 [2] of 1.98 µM. The TGI [2] was 4.7 µM, the GI50 [3] was 2.37 µM and the TGI [3] was 6.98 µM. The GI50 [4] was 2.29 µM, the TGI [4] was 7.11 µM and the GI50 [5] was 1.98 µM. It also gave a TGI [5] of 4.44 µM, a GI50 [6] of 1.65 µM and a TGI [6] of 3.54 µM. It also gave a GI50 [7] of 1.04 µM, a TGI [7] of 12.1 µM and a GI50 [8] of 1.09 µM. It also gave a TGI [8] of 4.79 µM, a GI50 [9] of 3.67 µM and a TGI [9] of 13.1 µM. It also gave a GI50 [10] of 1.17 µM, a TGI [10] of 3.75 µM and a GI50 [11] of 2.69 µM. It also gave a TGI [11] of 13.5 µM, a GI50 [12] of 1.68 µM and a TGI [12] of 3.3 µM. The GI50 [13] was 1.95 µM, the TGI [13] was 3.9 µM and the GI50 [14] was 1.61 µM. It also gave a TGI [14] of 3.24 µM, a GI50 [15] of 1.43 µM and a TGI [15] of 3.71 µM. For the same molecule, the GI50 [16] was 2.4 µM, the TGI [16] was 5.56 µM and the GI50 [17] was 3.58 µM. The TGI [17] was 11.2 µM, the GI50 [18] was 2.84 µM and the TGI [18] was 12.1 µM. For the same molecule, the GI50 [19] was 1.75 µM, the TGI [19] was 3.4 µM and the GI50 [20] was 1.5 µM. The TGI [20] was 3.09 µM, the GI50 [21] was 1.36 µM and the TGI [21] was 12.6 µM. For the same molecule, the GI50 [22] was 1.94 µM, the TGI [22] was 3.61 µM and the GI50 [23] was 3.77 µM. For the same molecule, the TGI [23] was 14.3 µM, the GI50 [24] was 2.19 µM and the TGI [24] was 5.41 µM. It also gave a GI50 [25] of 1.87 µM, a TGI [25] of 3.84 µM and a GI50 [26] of 3.15 µM. The TGI [26] was 10.8 µM, the GI50 [27] was 1.87 µM and the TGI [27] was 3.39 µM. It also gave a GI50 [28] of 1.44 µM, a TGI [28] of 4.25 µM and a GI50 [29] of 1.56 µM. For the same molecule, the TGI [29] was 3.15 µM, the GI50 [30] was 2.64 µM and the TGI [30] was 15.8 µM. The GI50 [31] was 2.03 µM, the TGI [31] was 5.24 µM and the GI50 [32] was 1.91 µM. For the same molecule, the TGI [32] was 3.92 µM, the GI50 [33] was 2.28 µM and the TGI [33] was 4.94 µM. It also gave a GI50 [34] of 1.78 µM, a TGI [34] of 3.66 µM and a GI50 [35] of 1.83 µM. The TGI [35] was 4.9 µM, the GI50 [36] was 3.93 µM and the TGI [36] was 15.6 µM. The GI50 [37] was 0.208 µM, the TGI [37] was 13.5 µM and the GI50 [38] was 1.9 µM. It also gave a TGI [38] of 3.78 µM, a GI50 [39] of 1.71 µM and a TGI [39] of 3.36 µM. It also gave a GI50 [40] of 1.82 µM, a TGI [40] of 15 µM and a GI50 [41] of 1.49 µM. The TGI [41] was 4.6 µM, the GI50 [42] was 2.48 µM and the TGI [42] was 10.7 µM. For the same molecule, the GI50 [43] was 2.22 µM, the TGI [43] was 5.25 µM and the GI50 [44] was 3.25 µM. For the same molecule, the TGI [44] was 14 µM, the GI50 [45] was 1.78 µM and the TGI [45] was 3.41 µM. For the same molecule, the GI50 [46] was 1.84 µM, the TGI [46] was 5.07 µM and the GI50 [47] was 2.02 µM. It also gave a TGI [47] of 5.01 µM, a GI50 [48] of 2.13 µM and a TGI [48] of 5.15 µM. It also gave a GI50 [49] of 1.87 µM, a TGI [49] of 3.73 µM and a GI50 [50] of 4.34 µM. For the same molecule, the TGI [50] was 20.1 µM, the GI50 [51] was 1.93 µM and the TGI [51] was 4.69 µM. For the same molecule, the GI50 [52] was 11.5 µM, the TGI [52] was 24.4 µM and the GI50 [53] was 1.29 µM. The TGI [53] was 4.27 µM, the GI50 [54] was 3.29 µM and the TGI [54] was 12.4 µM. For the same molecule, the GI50 [55] was 1.52 µM, the TGI [55] was 2.94 µM and the GI50 [56] was 1.83 µM. The TGI [56] was 3.61 µM.
